Format in all cases: in vivo
The subject of test [1] is Bemisia tabaci. Nature of the test: Bemisia tabaci, leaf dip method. The following applies: foliar, brinjal leaf dip, whitefly adults, 72 h after release, dead + moribund vs untreated control, read-out: percent mortality. How it is done:
The leaf dip method was used for testing, wherein the required quantity of the compound was weighed and dissolved in a tube containing solvent solution. The tube was put on a vortex at 2000 rpm for 90 min for proper mixing, then diluted with 0.01% Triton-X solution to get the desired test concentration. Brinjal leaves were dipped in the compound solution for 10 seconds; shade dried for 20 min and then placed, with the abaxial side of the leaf up, on 4 ml of a 1% agar-agar solution in respective perforated container caps. Known numbers of freshly emerged whitefly adults were collected, using a modified aspirator, and released into a perforated container in which the cap containing the treated leaf was placed. The containers were kept in a plant growth chamber at a temperature of 25° C. and relative humidity of 70%.
Observations on dead, moribund and alive adults were recorded 72 h after the release. Percent mortality was calculated by combining dead and moribund adults and comparing the result to the one of the untreated control. The compounds 55 87 and 198 were recorded ≥70 percent mortality @ 300 PPM.

Test [2] deals with Plutella xylostella. The test can be described thus: Plutella xylostella, leaf dip method. Particulars: foliar, cabbage leaf dip, second instar larvae, 72 h after release, dead + moribund vs untreated control, read-out: percent mortality. The method, boiled down:
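Cabbage leaves were dipped for 10 s in compound diluted with 0.01% Triton-X, shade dried and offered singly to second instar larvae. Trays were held at 25° C. and 70% relative humidity. Dead plus moribund larvae were scored at 72 h, and percent mortality was expressed relative to untreated control.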

Test [3] concerns Myzus persicae. The test can be described thus: Myzus persicae, leaf dip method. The following applies: foliar, capsicum leaf dip, third instar nymphs, 72 h after release, dead + moribund vs untreated control, read-out: percent mortality. How it is done: The leaf dip method was used for testing, wherein the required quantity of the compound was weighed and dissolved in a tube containing solvent solution. The tube was put on a vortex at 2000 rpm for 90 min for proper mixing, then diluted with 0.01% Triton-X solution to the desired test concentration. Capsicum leaves were dipped in the compound solution for 10 seconds, shade dried for 20 min and then placed, with the abaxial side of the leaf up, in single cells of a bio-assay tray containing 4 ml of a 1% agar-agar solution. Known numbers of third instar nymphs, collected in petri plates, were released into the cell with the treated leaf and the cell was covered with a perforated lid for better aeration. The trays were kept in a plant growth chamber at a temperature of 25° C. and a relative humidity of 70%. Observations on dead, moribund and alive nymphs were recorded 72 h after the release. Percent mortality was calculated by combining dead and moribund nymphs and comparing the result with the one of the untreated control.

The test system of test [4] is Nilaparvata lugens. Nature of the test: Nilaparvata lugens, seedling dip method. Particulars: paddy seedling dip, third instar nymphs, 72 h after release, dead + moribund vs untreated control, read-out: percent mortality. How it is done: The seedling dip method was used for testing, wherein the required quantity of the compound was weighed and dissolved in a tube containing solvent solution. The tube was put on a vortex at 2000 rpm for 90 min for proper mixing, then diluted with 0.01% Triton-X solution to the desired test concentration.
Paddy seedlings were dipped in the compound solution for 10 seconds, shade dried for 20 min and then the seedlings were placed in glass test tubes with the roots kept in water. 15 third instar nymphs were released into each test tube and the tubes were kept in a plant growth chamber at a temperature of 25° C. and relative humidity of 75%. Observations on dead, moribund and alive nymphs were recorded 72 h after the release. Percent mortality was calculated by combining dead and moribund nymphs and comparing the result to the one of the untreated control.

Test [5] deals with Helicoverpa armigera. The test can be described thus: Helicoverpa armigera, diet incorporation method. The following applies: third instar larvae, 96 h after release, dead + moribund vs untreated control, read-out: percent mortality. Here is the method:
(§1) The diet incorporation method was used, in which the required quantity of the test compound was weighed and dissolved in a tube containing solvent solution. The tube was put on a vortex at 2000 rpm for 90 min for proper mixing. Semi-synthetic diet was incorporated into this solution when the temperature was approximately 50° C. in the bioassay containers. Compound and diet were stirred thoroughly for proper mixing and allowed to cool for 30 min. The solidified diet was cut into equal pieces, and then each piece was transferred into one cell of a bio-assay tray. A single starved third instar larva was released into each of the cells of the bioassay trays and the tray was covered with a lid. The bio-assay trays were then kept under laboratory conditions at a temperature of 25° C. and a relative humidity of 70%. Observations on dead, moribund and alive larvae were recorded 96 h after the release of the larvae. Percent mortality was calculated by combining dead and moribund larvae and comparing the result to the one of the untreated control.

Test [6] relates to Spodoptera litura. The test can be described thus: Spodoptera litura, diet incorporation method. Particulars: third instar larvae, 96 h after release, dead + moribund vs untreated control, read-out: percent mortality. Here is the method:
as §1, with “covered with the lid. The” for “covered with a lid. The”, “release of larvae. Percent” for “release of the larvae. Percent”

SMILES strings stand for the structures. Where only a bound is given, the exact number is not on record here.

As to `CCS(=O)(=O)c1ccc(-n2nccn2)nc1-c1cnc2cc(C(F)(F)F)nn2c1` [Compound 55, 6-(3-(ethylsulfonyl)-6-(2H-1,2,3-triazol-2-yl)pyridin-2-yl)-2-(trifluoromethyl)pyrazolo[1,5-a]pyrimidine], in test [1], the mortality (usually the percentage killed) at 300 ppm was at least 70%.
Regarding `CCS(=O)(=O)c1ccc(NC)nc1-c1ccn2nc(C(F)(F)F)cc2n1` [Compound 167, 5-(ethylsulfonyl)-N-methyl-6-(2-(trifluoromethyl)pyrazolo[1,5-a]pyrimidin-5-yl)pyridin-2-amine], the mortality at 300 ppm in test [2], in test [3] and in test [4] was at least 70% each time.
Take `CCS(=O)(=O)c1ccc(NC2CC2)nc1-c1ccn2nc(C(F)(F)F)cc2n1` [Compound 141, N-cyclopropyl-5-(ethylsulfonyl)-6-(2-(trifluoromethyl)pyrazolo[1,5-a]pyrimidin-5-yl)pyridin-2-amine]: the mortality at 300 ppm in test [2], in test [3] and in test [4] was at least 70% in each case.
Regarding `CCS(=O)(=O)c1ccc(N(C)C)nc1-c1ccn2nc(C(F)(F)F)cc2n1` [Compound 166, 5-(ethylsulfonyl)-N,N-dimethyl-6-(2-(trifluoromethyl)pyrazolo[1,5-a]pyrimidin-5-yl)pyridin-2-amine], the mortality at 300 ppm in test [5], in test [2] and in test [4] was at least 70% throughout.
As for `CCS(=O)(=O)c1ccc(N(C)C2CC2)nc1-c1ccn2nc(C(F)(F)F)cc2n1` [Compound 168, N-cyclopropyl-5-(ethylsulfonyl)-N-methyl-6-(2-(trifluoromethyl)pyrazolo[1,5-a]pyrimidin-5-yl)pyridin-2-amine], the mortality at 300 ppm in test [6], in test [2] and in test [4] was at least 70% in each case.
Take `CCS(=O)(=O)c1ccc(C)nc1-c1ccn2nc(C(F)(F)F)cc2n1` [Compound 182, 5-(3-(ethylsulfonyl)-6-methylpyridin-2-yl)-2-(trifluoromethyl)pyrazolo[1,5-a]pyrimidine]: the mortality at 300 ppm in test [2], in test [3] and in test [4] was at least 70% each time.
